Several values for one entry are separate records, joined by “and”; a condition that tells them apart may be missing. Equal values may be shown once.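 Tested at 5 concentrations; 48 h exposure; 96-well plates; endpoints linearly interpolated, else capped at highest concentration. Here, GI50 denotes the concentration required for 50% inhibition of growth. TGI: total growth inhibition.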
What was measured:
Test in all cases: NCI-60 cell line screen, 48 h
NCI-H23 lung = system: NCI-H23 lung
HCC-2998 colon = system: HCC-2998 colon
SF-295 CNS = system: SF-295 CNS
MOLT-4 leukemia = system: MOLT-4 leukemia
OVCAR-8 ovarian = system: OVCAR-8 ovarian
T-47D breast = system: T-47D breast
A549 NSCLC = system: A549 NSCLC
DMS 114 small cell lung = system: DMS 114 small cell lung
SNB-19 CNS = system: SNB-19 CNS
HCT-15 colon = system: HCT-15 colon
SN12C renal = system: SN12C renal
RPMI-8226 leukemia = system: RPMI-8226 leukemia
DMS 273 small cell lung = system: DMS 273 small cell lung
OVCAR-3 ovarian = system: OVCAR-3 ovarian
U251 CNS = system: U251 CNS
OVCAR-4 ovarian = system: OVCAR-4 ovarian
SR leukemia = system: SR leukemia
NCI-H226 lung = system: NCI-H226 lung
SF-268 CNS = system: SF-268 CNS
TK-10 renal = system: TK-10 renal
NCI-H460 lung = system: NCI-H460 lung
HL-60(TB) leukemia = system: HL-60(TB) leukemia
SW-620 colon = system: SW-620 colon
OVCAR-5 ovarian = system: OVCAR-5 ovarian
RXF 393 renal = system: RXF 393 renal
HCT-116 colon = system: HCT-116 colon
HS 578T breast = system: HS 578T breast
DLD-1 colon = system: DLD-1 colon
MDA-MB-231 breast = system: MDA-MB-231 breast
IGROV1 ovarian = system: IGROV1 ovarian
EKVX NSCLC = system: EKVX NSCLC
MCF7 breast = system: MCF7 breast
SF-539 CNS = system: SF-539 CNS
HOP-92 NSCLC = system: HOP-92 NSCLC
SNB-75 CNS = system: SNB-75 CNS
UO-31 renal = system: UO-31 renal
HT29 colon = system: HT29 colon
HOP-62 NSCLC = system: HOP-62 NSCLC
SK-MEL-2 melanoma = system: SK-MEL-2 melanoma
NCI-H522 lung = system: NCI-H522 lung
SK-OV-3 ovarian = system: SK-OV-3 ovarian
BT-549 breast = system: BT-549 breast
MDA-N = system: MDA-N
PC-3 prostate = system: PC-3 prostate
LOX IMVI melanoma = system: LOX IMVI melanoma
KM12 colon = system: KM12 colon
CAKI-1 renal = system: CAKI-1 renal
MDA-MB-435 = system: MDA-MB-435
M19-MEL melanoma = system: M19-MEL melanoma
UACC-62 melanoma = system: UACC-62 melanoma
K-562 leukemia = system: K-562 leukemia
SK-MEL-28 melanoma = system: SK-MEL-28 melanoma
SK-MEL-5 melanoma = system: SK-MEL-5 melanoma
SNB-78 CNS = system: SNB-78 CNS
XF 498 CNS = system: XF 498 CNS
M14 melanoma = system: M14 melanoma
ACHN renal = system: ACHN renal
MALME-3M melanoma = system: MALME-3M melanoma
DU-145 prostate = system: DU-145 prostate
A498 renal = system: A498 renal
LXFL 529 NSCLC = system: LXFL 529 NSCLC
786-0 renal = system: 786-0 renal
CCRF-CEM leukemia = system: CCRF-CEM leukemia

Structure (SMILES): C/C(=N\NC(=S)N1CCN(c2ccccn2)CC1)c1ccccn1
- TGI (NCI-H23 lung): 11.5 µM
- GI50 (HCC-2998 colon): 0.252 µM
- TGI (HCC-2998 colon): 15.3 µM
- GI50 (SF-295 CNS): 0.0129 µM
- TGI (SF-295 CNS): 12.4 µM
- TGI (MOLT-4 leukemia): 2.66 µM
- TGI (OVCAR-8 ovarian): 20.4 µM
- TGI (T-47D breast): 7.37 µM
- GI50 (A549 NSCLC): 0.0464 µM
- TGI (A549 NSCLC): 13.7 µM
- TGI (DMS 114 small cell lung): 0.335 µM and 0.103 µM
- GI50 (SNB-19 CNS): 0.183 µM
- TGI (SNB-19 CNS): 15 µM
- TGI (HCT-15 colon): 14.5 µM
- TGI (SN12C renal): 18.5 µM
- TGI (RPMI-8226 leukemia): 23.6 µM
- TGI (DMS 273 small cell lung): 15 µM
- TGI (OVCAR-3 ovarian): 14.2 µM
- GI50 (U251 CNS): < 0.0161 µM
- TGI (U251 CNS): 12.9 µM
- GI50 (OVCAR-4 ovarian): 1.08 µM
- TGI (OVCAR-4 ovarian): 12.6 µM
- GI50 (SR leukemia): 0.0167 µM
- TGI (SR leukemia): 2.06 µM
- GI50 (NCI-H226 lung): 0.236 µM
- TGI (NCI-H226 lung): 7.33 µM
- TGI (SF-268 CNS): 14.2 µM
- TGI (TK-10 renal): 13.9 µM
- GI50 (NCI-H460 lung): 0.0102 µM
- TGI (NCI-H460 lung): 12.9 µM
- GI50 (HL-60(TB) leukemia): 0.0416 µM
- TGI (HL-60(TB) leukemia): 0.0104 µM
- TGI (SW-620 colon): 16.2 µM
- GI50 (OVCAR-5 ovarian): 0.159 µM
- TGI (OVCAR-5 ovarian): 13.4 µM
- TGI (RXF 393 renal): 13.4 µM
- TGI (HCT-116 colon): 13.8 µM
- GI50 (HS 578T breast): 1.28 µM
- TGI (HS 578T breast): 27.9 µM
- TGI (DLD-1 colon): 15.2 µM
- TGI (MDA-MB-231 breast): 18.5 µM
- TGI (IGROV1 ovarian): 15 µM
- GI50 (EKVX NSCLC): 0.000138 µM
- TGI (MCF7 breast): 11.4 µM
- GI50 (SF-539 CNS): 0.0272 µM
- TGI (SF-539 CNS): 8.02 µM
- GI50 (HOP-92 NSCLC): 0.00295 µM
- TGI (HOP-92 NSCLC): 13 µM
- TGI (SNB-75 CNS): 17.6 µM
- GI50 (UO-31 renal): 0.141 µM
- TGI (UO-31 renal): 6.8 µM
- GI50 (HT29 colon): < 0.0192 µM
- TGI (HT29 colon): 16 µM
- GI50 (HOP-62 NSCLC): 0.0475 µM
- TGI (HOP-62 NSCLC): 12.7 µM
- GI50 (SK-MEL-2 melanoma): 0.231 µM
- TGI (SK-MEL-2 melanoma): 12.9 µM
- GI50 (NCI-H522 lung): 0.179 µM
- TGI (NCI-H522 lung): 0.71 µM and 2.07 µM
- GI50 (SK-OV-3 ovarian): 0.198 µM
- TGI (SK-OV-3 ovarian): 16.2 µM
- TGI (BT-549 breast): 0.577 µM
- TGI (MDA-N): 13.3 µM
- TGI (PC-3 prostate): 15.1 µM
- TGI (LOX IMVI melanoma): 14.4 µM
- GI50 (KM12 colon): 0.0219 µM
- TGI (KM12 colon): 14.1 µM
- GI50 (CAKI-1 renal): 0.301 µM
- TGI (CAKI-1 renal): 15.5 µM
- TGI (MDA-MB-435): 12.3 µM
- TGI (M19-MEL melanoma): 2.94 µM
- GI50 (UACC-62 melanoma): < 0.0114 µM
- TGI (K-562 leukemia): 0.0341 µM
- TGI (SK-MEL-28 melanoma): 19.3 µM
- GI50 (SK-MEL-5 melanoma): 0.0688 µM
- TGI (SK-MEL-5 melanoma): 13.5 µM
- TGI (SNB-78 CNS): 21.5 µM
- GI50 (XF 498 CNS): 0.0236 µM
- GI50 (M14 melanoma): 0.0852 µM
- TGI (M14 melanoma): 8.06 µM
- GI50 (ACHN renal): 0.00217 µM
- TGI (ACHN renal): 8.52 µM
- GI50 (MALME-3M melanoma): 0.406 µM
- TGI (MALME-3M melanoma): 12.8 µM
- TGI (DU-145 prostate): 14.1 µM
- GI50 (A498 renal): 1.67 µM
- TGI (A498 renal): 15 µM
- TGI (LXFL 529 NSCLC): 14.2 µM
- GI50 (786-0 renal): 0.00656 µM
- TGI (786-0 renal): 13.5 µM
- TGI (CCRF-CEM leukemia): 0.878 µM and 0.317 µM

From PubChem BioAssay (NCI)
